Experimental data: patent US10407422B2, “Triazolopyridine inhibitors of myeloperoxidase” (priority 2015, dated 2019)

Tests used:
myeloperoxidase (MPO) [1] = biological target: T1, myeloperoxidase (MPO) (Homo sapiens (Human), UniProt P05164); assay: MPO peroxidation assay (Amplex Red assay); assay type: biochemical; details: potency range class
Outline: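 Human MPO at 200 pM with 40 nM H2O2 preincubated 10 min at room temperature with inhibitor in 100 mM KPi pH 7.4. Reaction started with Amplex Red mixture (200 μM Amplex Red, 10 mM H2O2); resorufin fluorescence (Ex 535, Em 590 nm) read kinetically for 15 min. IC50 fitted from slopes over 180-540 s.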

myeloperoxidase (MPO) [2] = biological target: T1, myeloperoxidase (MPO); assay: MPO chlorination assay (APF assay); assay type: biochemical; details: potency range class
Outline: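 Human MPO (200 pM) preincubated 10 min at room temperature with inhibitor and 120 mM NaCl in 100 mM KPi pH 7.4. Reaction started with APF plus 10 μM H2O2, and hypochlorite-generated fluorescein read kinetically (ex 485/em 535 nm) for 3 min. IC50 from linear-phase slopes fitted to a four-parameter equation.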

T1 sequence (P05164 49-745): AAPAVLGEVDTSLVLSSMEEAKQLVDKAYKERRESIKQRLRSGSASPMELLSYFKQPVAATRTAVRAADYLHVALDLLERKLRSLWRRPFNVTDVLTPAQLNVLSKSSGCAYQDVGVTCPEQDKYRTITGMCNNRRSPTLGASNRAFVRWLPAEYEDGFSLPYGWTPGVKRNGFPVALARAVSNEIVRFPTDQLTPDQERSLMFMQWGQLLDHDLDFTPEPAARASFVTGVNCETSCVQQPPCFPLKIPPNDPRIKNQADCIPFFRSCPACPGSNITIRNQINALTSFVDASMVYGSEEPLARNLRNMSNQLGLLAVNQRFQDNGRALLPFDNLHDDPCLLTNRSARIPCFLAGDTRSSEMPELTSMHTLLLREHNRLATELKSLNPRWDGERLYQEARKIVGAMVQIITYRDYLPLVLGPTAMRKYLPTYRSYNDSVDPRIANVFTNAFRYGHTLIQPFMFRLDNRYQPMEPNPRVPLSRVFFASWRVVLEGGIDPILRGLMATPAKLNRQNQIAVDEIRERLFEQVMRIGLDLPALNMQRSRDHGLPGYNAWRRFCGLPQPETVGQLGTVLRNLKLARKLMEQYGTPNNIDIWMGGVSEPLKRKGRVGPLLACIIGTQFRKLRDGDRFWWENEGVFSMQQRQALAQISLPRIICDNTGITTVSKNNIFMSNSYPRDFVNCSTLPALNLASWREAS

Row | Structure (SMILES) | IC50 (myeloperoxidase (MPO) [1]) [nM] | IC50 (myeloperoxidase (MPO) [2]) [nM]
1 | Nc1cc(Cc2cnn(C[C@H]3C[C@H](Oc4ccc(F)cc4)CN3)c2)c2nn[nH]c2n1 [Example 282, 7-[(1-{[(2R,4S)-4-(4-Fluorophenoxy)pyrrolidin-2-yl]methyl}-1H-pyrazol-4-yl)methyl]-3H-[1,2,3]triazolo[4,5-b]pyridin-5-amine] | 1 to 100 | 1 to 100
2 | Nc1cc(Cc2cnn(Cc3cccc(-c4nccs4)c3)c2)c2nn[nH]c2n1 [Example 177, 7-((1-(3-(Thiazol-2-yl)benzyl)-1H-pyrazol-4-yl)methyl)-3H-[1,2,3]triazolo[4,5-b]pyridin-5-amine] | 1 to 100 | 101 to 999
3 | Nc1cc(Cc2cnn(Cc3cccc(Oc4ccccc4)c3)c2)c2nn[nH]c2n1 [Example 106, 7-((1-(3-Phenoxybenzyl)-1H-pyrazol-4-yl)methyl)-3H-[1,2,3]triazolo[4,5-b]pyridin-5-amine] | 1 to 100 | 1 to 100
4 | Cc1nc(-c2ccc(Cl)cc2)sc1Cn1cc(Cc2cc(N)nc3[nH]nnc23)cn1 [Example 119, 7-((1-((2-(4-Chlorophenyl)-4-methylthiazol-5-yl)methyl)-1H-pyrazol-4-yl)methyl)-3H-[1,2,3]triazolo[4,5-b]pyridin-5-amine] | 1 to 100 | 101 to 999
5 | CN1CCN(c2ccc(Cn3cc(Cc4cc(N)nc5[nH]nnc45)cn3)cc2)CC1 [Example 112, 7-((1-(4-(4-Methylpiperazin-1-yl)benzyl)-1H-pyrazol-4-yl)methyl)-3H-[1,2,3]triazolo[4,5-b]pyridin-5-amine] | 1 to 100 | 101 to 999
6 | CN(Cc1ncc[nH]1)C(=O)c1ccc(Cn2cc(Cc3cc(N)nc4[nH]nnc34)cn2)cc1 [Example 82, 4-{[4-({5-Amino-3H-[1,2,3]triazolo[4,5-b]pyridin-7-yl}methyl)-1H-pyrazol-1-yl]methyl}-N-(1H-imidazol-2-ylmethyl)-N-methylbenzamide] | 1 to 100 | 101 to 999
7 | Nc1cc(Cc2cnn(Cc3cccc(OC[C@H]4CCCN4)c3)c2)c2nn[nH]c2n1 [Example 243, 7-{[1-({3-[(2R)-Pyrrolidin-2-ylmethoxy]phenyl}methyl)-1H-pyrazol-4-yl]methyl}-3H-[1,2,3]triazolo[4,5-b]pyridin-5-amine] | 1 to 100 | 1 to 100
8 | Nc1cc(Cn2nnc3ccc(Cc4ccccc4)cc32)c2nn[nH]c2n1 [Example 170, 7-[(6-Benzyl-1H-1,2,3-benzotriazol-1-yl)methyl]-3H-[1,2,3]triazolo[4,5-b]pyridin-5-amine] | 101 to 999 | 101 to 999
9 | CN1CCN(CC(=O)NCc2ccc(Cn3cc(Cc4cc(N)nc5[nH]nnc45)cn3)cc2)CC1 [Example 252, N-[(4-{[4-({5-Amino-3H-[1,2,3]triazolo[4,5-b]pyridin-7-yl}methyl)-1H-pyrazol-1-yl]methyl}phenyl)methyl]-2-(4-methylpiperazin-1-yl)acetamide] | 101 to 999 | 101 to 999
10 | N#Cc1ccc(Cn2cc(Cc3cc(N)nc4[nH]nnc34)cn2)cc1 [Example 271, 4-{[4-({5-Amino-3H-[1,2,3]triazolo[4,5-b]pyridin-7-yl}methyl)-1H-pyrazol-1-yl]methyl}benzonitrile] | 1 to 100 | 101 to 999
11 | Nc1cc(Cc2cnn(Cc3cccc(N4CCN[C@@H](COCc5ccccc5)C4)c3)c2)c2nn[nH]c2n1 [Example 220, 7-{[1-({3-[(3R)-3-[(Benzyloxy)methyl]piperazin-1-yl]phenyl}methyl)-1H-pyrazol-4-yl]methyl}-3H-[1,2,3]triazolo[4,5-b]pyridin-5-amine] | 101 to 999 | 1 to 100
12 | Nc1cc(Cc2cnn(Cc3cccc(Oc4cccc(C5CCCN5)c4)c3)c2)c2nn[nH]c2n1 (centres unmarked) [Example 238, 7-{[1-({3-[3-(Pyrrolidin-2-yl)phenoxy]phenyl}methyl)-1H-pyrazol-4-yl]methyl}-3H-[1,2,3]triazolo[4,5-b]pyridin-5-amine] | 1 to 100 | 1 to 100
13 | Nc1cc(Cc2ccn(-c3ccccc3)n2)c2nn[nH]c2n1 [Example 33, 7-((1-Phenyl-1H-pyrazol-3-yl)methyl)-3H-[1,2,3]triazolo[4,5-b]pyridin-5-amine] | 101 to 999 | 101 to 999
14 | Nc1cc(Cc2cnn(Cc3cccc(OCC4CCc5ccccc54)c3)c2)c2nn[nH]c2n1 (centres unmarked) [Example 235, 7-[(1-{[3-(2,3-Dihydro-1H-inden-1-ylmethoxy)phenyl]methyl}-1H-pyrazol-4-yl)methyl]-3H-[1,2,3]triazolo[4,5-b]pyridin-5-amine] | 101 to 999 | 101 to 999
15 | Nc1cc(Cc2cnn(Cc3cccc([C@@H]4CCNC4)c3)c2)c2nn[nH]c2n1 [Example 190] | 1 to 100 | 1 to 100
16 | Nc1cc(Cc2cc(-c3ccccc3)no2)c2nn[nH]c2n1 [Example 48, 7-((3-Phenylisoxazol-5-yl)methyl)-3H-[1,2,3]triazolo[4,5-b]pyridin-5-amine] | 101 to 999 | 101 to 999

Row | Structure (SMILES) | IC50 (myeloperoxidase (MPO) [1]) [nM] | IC50 (myeloperoxidase (MPO) [2]) [nM]
17 | Nc1cc(Cc2cnn(Cc3ccc4c(c3)CCC[C@@H]4N)c2)c2nn[nH]c2n1 [Example 267, 7-[(1-{[(5S)-5-Amino-5,6,7,8-tetrahydronaphthalen-2-yl]methyl}-1H-pyrazol-4-yl)methyl]-3H-[1,2,3]triazolo[4,5-b]pyridin-5-amine] | 1 to 100 | 1 to 100
18 | Nc1cc(Cc2cnn(Cc3ccc4c(c3)OCO4)c2)c2nn[nH]c2n1 [Example 150, 7-{[1-(2H-1,3-Benzodioxol-5-ylmethyl)-1H-pyrazol-4-yl]methyl}-3H-[1,2,3]triazolo[4,5-b]pyridin-5-amine] | 1 to 100 | 101 to 999
19 | Nc1cc(Cc2cnn(Cc3ccc4c(c3)CCC[C@H]4N)c2)c2nn[nH]c2n1 [Example 269, 7-[(1-{[(5R)-5-Amino-5,6,7,8-tetrahydronaphthalen-2-yl]methyl}-1H-pyrazol-4-yl)methyl]-3H-[1,2,3]triazolo[4,5-b]pyridin-5-amine] | 1 to 100 | 1 to 100
20 | Nc1cc(Cc2cnn(Cc3ccc4c(c3)NCCC4)c2)c2nn[nH]c2n1 [Example 152, 7-{[1-(1,2,3,4-Tetrahydroquinolin-7-ylmethyl)-1H-pyrazol-4-yl]methyl}-3H-[1,2,3]triazolo[4,5-b]pyridin-5-amine] | 1000 to 10000 | 1 to 100
21 | Nc1cc(Cc2cnn(Cc3cccc(OC4CCCNC4)c3)c2)c2nn[nH]c2n1 (centres unmarked) [Example 234, 7-[(1-{[3-(Piperidin-3-yloxy)phenyl]methyl}-1H-pyrazol-4-yl)methyl]-3H-[1,2,3]triazolo[4,5-b]pyridin-5-amine] | 1 to 100 | 1 to 100
22 | Cc1ccc([C@H]2CNC(=O)C2)cc1Cn1cc(Cc2cc(N)nc3[nH]nnc23)cn1 [Example 192, (4S)-4-(3-{[4-({5-Amino-3H-[1,2,3]triazolo[4,5-b]pyridin-7-yl}methyl)-1H-pyrazol-1-yl]methyl}-4-methylphenyl)pyrrolidin-2-one] | 101 to 999 | 101 to 999
23 | Nc1cc(Cc2cnn(Cc3cnn(-c4ccccn4)c3)c2)c2nn[nH]c2n1 [Example 115, 7-((1-((1-(Pyridin-2-yl)-1H-pyrazol-4-yl)methyl)-1H-pyrazol-4-yl)methyl)-3H-[1,2,3]triazolo[4,5-b]pyridin-5-amine] | 1 to 100 | 101 to 999
24 | Nc1cc(Cc2cnn(Cc3ccc(-n4cccn4)cc3)c2)c2nn[nH]c2n1 [Example 56, 7-[(1-{[4-(1H-Pyrazol-1-yl)phenyl]methyl}-1H-pyrazol-4-yl)methyl]-3H-[1,2,3]triazolo[4,5-b]pyridin-5-amine] | 1 to 100 | 101 to 999
25 | Nc1cc(Cc2cnn(Cc3cccc(CN4CCCC4)c3)c2)c2nn[nH]c2n1 [Example 254, 7-[(1-{[3-(Pyrrolidin-1-ylmethyl)phenyl]methyl}-1H-pyrazol-4-yl)methyl]-3H-[1,2,3]triazolo[4,5-b]pyridin-5-amine] | 1 to 100 | 101 to 999
26 | CN(C)CCNC(=O)c1ccc(Cn2cc(Cc3cc(N)nc4[nH]nnc34)cn2)cc1 [Example 72, 4-((4-((5-Amino-3H-[1,2,3]triazolo[4,5-b]pyridin-7-yl)methyl)-1H-pyrazol-1-yl)methyl)-N-(2-(dimethylamino)ethyl)benzamide] | 1 to 100 | 101 to 999
27 | Nc1cc(Cc2cn(Cc3cccc(C4CCNCC4)c3)nc2C(F)F)c2nn[nH]c2n1 [Example 286, 7-{[3-(Difluoromethyl)-1-{[3-(piperidin-4-yl)phenyl]methyl}-1H-pyrazol-4-yl]methyl}-3H-[1,2,3]triazolo[4,5-b]pyridin-5-amine] | 101 to 999 | 101 to 999
28 | Nc1cc(Cc2cnn(Cc3cccc(-c4cnoc4)c3)c2)c2nn[nH]c2n1 [Example 157, 7-[(1-{[3-(1,2-Oxazol-4-yl)phenyl]methyl}-1H-pyrazol-4-yl)methyl]-3H-[1,2,3]triazolo[4,5-b]pyridin-5-amine] | 101 to 999 | 101 to 999
29 | Nc1cc(Cn2nnc(-c3ccccc3)n2)c2nn[nH]c2n1 [Example 169, 7-[(5-Phenyl-2H-1,2,3,4-tetrazol-2-yl)methyl]-3H-[1,2,3]triazolo[4,5-b]pyridin-5-amine] | 101 to 999 | 101 to 999
30 | Nc1cc(Cc2cnn(Cc3ccc(Cl)cc3)c2)c2nn[nH]c2n1 [Example 45, 7-((1-(4-Chlorobenzyl)-1H-pyrazol-4-yl)methyl)-3H-[1,2,3]triazolo[4,5-b]pyridin-5-amine] | 1 to 100 | 1 to 100
31 | N#Cc1cccc(Cn2cc(Cc3cc(N)nc4[nH]nnc34)cn2)c1 [Example 158, 3-{[4-({5-Amino-3H-[1,2,3]triazolo[4,5-b]pyridin-7-yl}methyl)-1H-pyrazol-1-yl]methyl}benzonitrile] | 1 to 100 | 1 to 100
